Assay results from patent US5962487A, “Antipicornaviral compounds and methods for their use and preparation” (Agouron Pharmaceuticals, Inc., priority 1997, dated 1999).

What was measured:
[1] = target: T1, Rhinovirus 3C protease (RVP) serotype-14 (Human rhinovirus 14, UniProt P03303); test: Inhibition of Rhinovirus Protease, serotype 14 (FRET assay); type: biochemical; conditions: for kinact/KI: read-out: kobs/I; for Ki: 10 minute preincubation with 50 nM RVP prior to addition of substrate, read-out: INHIB (Ki)
T1 construct: Recombinant Rhinovirus 3C proteases from serotypes 14, 16, 2 or 89 were prepared; made in house
Procedure: Stock solutions (50 mM, in DMSO) of various compounds were prepared; dilutions were in the same solvent. Recombinant Rhinovirus 3C proteases from serotypes 14, 16, 2 or 89 were prepared by the following standard chromatographic procedures: (1) ion exchange using Q Sepharose Fast Flow from Pharmacia; (2) affinity chromatography using Affi-Gel Blue from Biorad; and (3) sizing using Sephadex G-100 from Pharmacia. Assays contained 2% DMSO, 50 mM tris pH 7.6, 1 mM EDTA, a compound at the indicated concentrations, approximately 1 μM substrate, and 50-100 nM protease. For Ki determinations, the compound and the enzyme were preincubated for 10 minutes at 30° C. prior to addition of the substrate (substrate start). The kobs/I values were obtained from reactions initiated by addition of enzyme rather than substrate. RVP activity is measured in the fluorescence resonance energy transfer assay. The substrate was (N-terminal) DABCYL-(Gly-Arg-Ala-Val-Phe-Gln-Gly-Pro-Val-Gly)-EDANS. In the uncleaved peptide, the EDANS fluorescence was quenched by the proximal DABCYL moiety. When the peptide was cleaved, the quenching was relieved, and activity was measured as an increase in fluorescence signal.
In the above table, all data is for RVP serotype-14 unless otherwise noted in parentheses. All strains of human rhinovirus (HRV) were purchased from American Type Culture Collection (ATCC), except for serotype 14, which was produced from the infectious cDNA clone constructed and supplied to us by Dr. Roland Rueckert at the Institute for Molecular Virology, University of Wisconsin, Madison, Wis. The column designated INHIB represents the percent inhibition, with the concentration of the compound in μM indicated in parentheses, unless Ki was assigned as designated by (Ki), at 10 minute preincubation with 50 nM RVP prior to addition of substrate was used. The data in the column designated kobs/I was measured from progress curves in enzyme start experiments.

in vitro = type: cell-based; conditions: human, hi-hela cells
Procedure: (§1) HI-HeLa cells were infected with HRV-14 (unless otherwise noted) at a multiplicity of infection (m.o.i.) of 0.13 (virus particles/cell) or mock-infected with medium only. Infected or mock-infected cells were resuspended at 8×10^5 cells per mL and incubated with appropriate concentrations of compounds of formulas I and II. Two days later, XTT/PMS was added to test plates, and the amount of formazan produced was quantified spectrophotometrically at 450/650 nm. The EC50 was calculated as the concentration of compound that increased the percentage of formazan production in compound-treated, virus-infected cells to 50% of that produced by compound-free mock-infected cells. The 50% cytotoxic dose (CC50) was calculated as the concentration of compound that decreased the percentage of formazan produced in compound-treated, mock-infected cells to 50% of that produced in compound-free, mock-infected cells. The therapeutic index (TI) was calculated by dividing the CC50 by the EC50.
(§2) All strains of human rhinovims (HRV) for use in this assay were purchased from American Type Culture Collection (ATCC), except for HRV serotype-14, which was produced from the infectious cDNA clone, constructed and supplied to us by Dr. Roland Rueckert at the Institute for Molecular Virology, University of Wisconsin, Madison, Wis. HRV stocks were propagated, and antiviral assays were performed in HI-HeLa (ATCC). Cells were grown in Minimal Essential Medium, available from Life Technologies, with 10% fetal bovine serum.

HRV-14 = test: Antirhinoviral HI-HeLa Cell Culture Assay (cell protection, XTT), HRV-14; type: cell-based, human rhinovirus; conditions: for TI: CC50/EC50, HRV serotype-14, 2880 min; for EC50: Rhinovirus B, HRV14, 48 h, HRV serotype-14 infected HI-HeLa cells, XTT, two days
Procedure: In the Cell Protection Assay, the ability of compounds to protect cells against HRV infection was measured by the XTT dye reduction method. This method is described in O. S. Weislow, R. Kiser, D. L. Fine, J. Bader, R. H. Shoemaker, and M. R. Boyd, J. Natl. Cancer Inst. 1989, 81, 577-586, which document is entirely incorporated herein by reference.
as §1, §2
The compounds were tested against control compounds WIN 51711, WIN 52084, and WIN 54954, all obtained from Sterling-Winthrop Pharmaceuticals, and control compound Pirodavir, obtained from Janssen Pharmaceuticals. Antiviral data obtained for the test compounds are shown in Table 2 where all data are for HRV serotype-14 unless otherwise noted in parentheses.

T1 sequence (P03303 1538-1719): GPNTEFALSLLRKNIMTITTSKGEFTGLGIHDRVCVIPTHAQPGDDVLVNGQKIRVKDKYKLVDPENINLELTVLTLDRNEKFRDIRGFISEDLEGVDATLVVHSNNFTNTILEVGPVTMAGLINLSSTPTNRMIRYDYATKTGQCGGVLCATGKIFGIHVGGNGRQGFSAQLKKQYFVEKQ

Row | Structure (SMILES) | kinact/KI [1] [M⁻¹ s⁻¹] | CC50 at 48 h (in vitro) [µM] | TI (HRV-14) | EC50 (HRV-14) [µM] | Ki ([1]; RVP serotype-14) [µM] | inhibition at 10 µM ([1]; RVP serotype-14, 10 μM compound, 10 minute preincubation with 50 nM RVP, read-out: INHIB (percent inhibition)) [%]
1 | CCCOC(=O)/C=C/[C@H](CCC(N)=O)NC(=O)[C@H](Cc1ccccc1)N(C)C(=O)[C@H](CC(C)C)NC(=O)SC1CCCC1 [Compound 57] | 13500 | 50 | 89 | 0.56 | – | –
2 | CCOC(=O)/C=C/[C@H](CCC(N)=O)NC(=O)[C@@H]1[C@@H](c2ccccc2)CCN1C(=O)[C@H](CC(C)C)NC(=O)OCc1ccccc1 [Compound 18, Ethyl-3-[CBZ-L-Leu-L-(3R-Phenyl)-Pro-L-Gln]-E-Propenoate] | 423 | 126 | 25 | 5 | 7 | –
3 | CC(C)C[C@H](NC(=O)SC1CCCC1)C(=O)N(C)[C@@H](Cc1ccccc1)C(=O)N[C@H](/C=C1\CCOC1=O)CCC(N)=O [Compound 6, 2-(Cyclopentylthiocarbonyl-L-Leu-L-N-Me-Phe-L-Gln)-E(α-Vinyl-γ-Butyrolactone)] | 9500 | 151 | 54 | 2.8 | – | –
4 | CN(C(=O)[C@H](CCc1ccccc1)NC(=O)SCc1ccccc1)[C@@H](Cc1ccccc1)C(=O)N[C@H](/C=C1\CCOC1=O)CCC(N)=O [Compound 10, 2-(Bezylthiocarbonyl-L-hPhe-L-N-Me-Phe-L-Gln)-E-(α-Vinyl-γ-Butyrolactone)] | 41800 | 56.2 | 31 | 1.8 | 2 | –
5 | CCOC(=O)/C=C/[C@H](CCC(N)=O)NC(=O)[C@H](Cc1ccccc1)N(C)C(=O)[C@H](CC(C)C)NC(=O)SCC [Compound 11, Ethyl-3-(Ethylthiocarbonyl-L-Leu-L-N-Me-Phe-L-Gln)-E-Propenoate] | 12000 | > 320 | > 603 | 0.53 | – | –
6 | CCOC(=O)/C=C/[C@H](CCC(N)=O)NC(=O)Cn1c(-c2ccccc2)ncc(N)c1=O [Compound 31, Ethyl-3-{[(5-Amino)-2-Phenyl-6Oxo-1,6-Dihydro-1-Pyrimidinyl]-L-Gln}-Propenoate] | 39 | > 320 | > 6 | 56 | – | –
7 | CCOC(=O)/C=C/[C@H](CCC(N)=O)NC(=O)[C@H](Cc1ccccc1)n1ccn(NC(=O)OCc2ccccc2)c1=O [Compound 33, Ethyl-3-(CBZ-amino-L-N-[(1,3-Dihydro-imidazol-2-one)-Phe]-L-Gln)-E-Propenoate] | 361 | > 320 | – | > 320 | – | 86
8 | CCOC(=O)/C=C/[C@H](CCC(N)=O)NC(=O)[C@H](Cc1ccccc1)n1cc[nH]c1=O [Compound 32, Ethyl-3-(L-N-[(1,3-Dihydro-imidazol-2-one)-Phe]-L-Gln)-E-Propenoate] | 98 | > 320 | > 2 | 158 | – | –
9 | CCOC(=O)/C=C/[C@H](CCC(N)=O)NC(=O)C1CN(Cc2ccccc2)CCN1C(=O)[C@H](CC(C)C)NC(=O)OCc1ccccc1 (mixture of isomers) [Compound 28, Ethyl-3-(CBZ-L-Leu-DL-(4-Benzyl)-Pipz-L-Gln]-E-Propenoate] | 116 | 125 | 18 | 6.9 | 50 | –
10 | CCOC(=O)/C=C/[C@H](CCC(N)=O)NC(=O)[C@H](Cc1ccccc1)N(C)C(=O)[C@H](CSc1ccccc1)NC(=O)SC1CCCC1 [Compound 46] | 36800 | 18 | 33 | 0.54 | – | –
11 | CCOC(=O)/C=C/C(CCC(N)=O)NC(=O)[C@@H]1CCc2ncc(N(C(=O)SC3CCCC3)C(=O)SC3CCCC3)c(=O)n21 (stereo partly shown) [Compound 50] | 14000 | > 100 | > 31 | 3.2 | – | –
12 | CC(C)C[C@H](NC(=O)OCc1ccccc1)C(=O)N1CCCC[C@H]1C(=O)N[C@H](/C=C/C(=O)N1CCCCO1)CCC(N)=O [Compound 26, 1-[1',2'-Oxazin-2'-yl]-3-(CBZ-L-Leu-L-Pip-L-Gln)-E-Propenone] | 875 | > 320 | > 5 | 56 | 34 | –
13 | CCOC(=O)/C=C/[C@H](CCC(N)=O)NC(=O)[C@H](Cc1ccccc1)N(C)C(=O)[C@H](CC(C)C)NC(=O)SC1CCCC1 [Compound 5, Ethyl-3-(Cyclopentylthiocarbonyl-L-Leu-L-N-Me-Phe-L-Gln)-E-Propenoate] | 17300 | 51.4 | 214 | 0.24 | – | –
14 | CCOC(=O)/C=C/[C@H](CCC(N)=O)NC(=O)[C@H](Cc1ccccc1)N(C)C(=O)[C@H](CC(C)C)NC(=O)SC(C)C [Compound 38] | 18200 | > 100 | > 278 | 0.36 | – | –
15 | CCOC(=O)/C=C/[C@H](CCC(N)=O)NC(=O)[C@H](Cc1ccccc1)N(C)C(=O)[C@H](CC(C)C)NC(=O)SCC(C)C [Compound 44] | 12300 | 56.2 | 104 | 0.54 | – | –
16 | CCOC(=O)/C=C/[C@H](CCC(N)=O)NC(=O)C1CN(S(=O)(=O)c2ccccc2)CCN1C(=O)[C@H](CC(C)C)NC(=O)OCc1ccccc1 (mixture of isomers) [Compound 29, Ethyl-3-[CBZ-L-Leu-DL-(4-Phenylsulfonyl)-Pipz-L-Gln]-E-Propenoate] | 45 | 251 | 5 | 46 | – | –
17 | CCOC(=O)/C(C)=C/[C@H](CCC(N)=O)NC(=O)[C@H](Cc1ccccc1)N(C)C(=O)[C@H](CC(C)C)NC(=O)SCC(C)C [Compound 45] | 2300 | 56.2 | 32 | 1.78 | – | –
18 | CCOC(=O)/C(C)=C/[C@H](CCC(N)=O)NC(=O)[C@H](Cc1ccccc1)N(C)C(=O)[C@H](CC(C)C)NC(=O)SCC1CCCCC1 [Compound 41] | 2350 | 18 | 9 | 2 | – | –
19 | CCOC(=O)/C=C/[C@H](CCC(N)=O)NC(=O)[C@@H]1CCCN1C(=O)[C@H](CC(C)C)NC(=O)OCc1ccccc1 [Compound 19, Ethyl-3-(CBZ-L-Leu-L-Pro-L-Gln)-E-Propenoate] | 1930 | > 320 | > 6 | 50 | – | –
20 | CCOC(=O)/C=C/[C@H](CCC(N)=O)NC(=O)[C@@H]1C[C@@H](OCc2ccccc2)CN1C(=O)[C@H](CC(C)C)NC(=O)OCc1ccccc1 [Compound 20, Ethyl-3-[CBZ-L-Leu-L-(4R-Benzyloxy)-Pro-L-Gln]-E-Propenoate] | 3330 | 56 | 10.3 | 5.4 | 62 | –
21 | CCOC(=O)C=CC(CCC(N)=O)NC(=O)C1CC(OC(C)(C)C)CN1C(=O)C(CC(C)C)NC(=O)OCc1ccccc1 (stereo not shown) [Compound 23] | 605 | 224 | 22 | 10 | 60 | –
22 | CCOC(=O)/C=C/C(CCC(N)=O)NC(=O)[C@H](Cc1ccccc1)N1CC[C@H](NC(=O)OCc2ccccc2)C1=O (stereo partly shown) [Compound 53] | 242 | > 100 | > 22 | 4.5 | – | –
